From patent US20160235677A1, “METHOD OF CONVERTING A CRYSTALLINE COMPOUND TO AN AMORPHOUS COMPOUND, METHOD OF INCREASING THE SOLUBILITY OF A CRYSTALLINE COMPOUND IN A BIORELEVANT FLUID, AND NANOPARTICLES THAT ACHIEVE SUPERSATURATION” (Nanocopoeia, LLC., priority 2014, published 2016)
In brackets after ≈: the same amount, converted by molar mass. Where a name gives a salt, the structure may show the parent alone. Read-outs that look alike come from different tables or passages of the source. Blank lines part the entries; values can stand above or below the molecule they belong to.

Tests used:
[1] = XRD and DSC determinations of physical state of ENS-processed powders (Table B); assay type: physicochemical
Protocol: Thermal analysis is conducted using a TA Instruments Model Q200 DSC (New Castle, Del.) equipped with an RCS-90 refrigerated cooling system. Samples, in an amount of 3.5 mg±1.0 mg, are weighed into TA Instruments T-Zero aluminum pans and closed with lids. […] Nitrogen is used as the purge gas at a flow rate of 50 mL/min. All data analyses are performed using TA Universal Analysis 2000 software (TA Instruments, New Castle, Del.). T-Zero cell constant and temperature/enthalpy calibrations are conducted with the use of sapphire and indium standards, respectively.
X-ray powder diffraction is performed at room temperature using a Bruker D8 Discover using a Cu Kα radiation, point source filtered with a graphite monochromator and a Bruker Hi-Star two-dimensional x-ray detector (Bruker, Karlsruhe, Germany). Powder samples are pressed onto a sample holder made of single-crystal quartz cut off-axis. The reflected intensity is collected at 0.04° resolution from 2Θ=2° to 62° with an acquisition time of 20 minutes. Data analysis is performed using the JADE 8.0 software package (Materials Data Inc., Livermore, Calif.) with whole pattern fitting. The test method has a detection limit of 2% crystallinity.
A series of crystalline drug and polymer combinations were dissolved in solvents in the amounts and at the ratios set forth in Table B. The solutions were then sprayed using the ENS system described above. The resulting dry compounds were collected and analyzed according to the XRD, DSC and SEM test methods.

[2] = Differential Scanning Calorimetry (DSC) crystallinity / physical state; assay type: physicochemical; settings: griseofulvin formulations
Protocol: Controls and Examples were tested according to the DSC test method.

Caco-2 monolayers = test: Caco-2 Monolayer Test Method; assay type: in vitro ADME; settings: Caco-2, FIGS. 8A and 8B, result in words
Protocol: Caco-2 monolayers are prepared in Millipore 96-cell Caco-2 plates and are used after a 3-week differentiation period. The monolayers separate the apical, or donor well, from the basolateral, or recipient well. The buffer used for the apical side is 1.98 g/L glucose in 10 mM HEPES, Hank's Balanced Salt Solution (HBSS) lx, with calcium, magnesium, without phenol red (HyClone, Logan, Utah) pH 7.4. The impermeable dye Lucifer yellow (in an amount of 100 μM) is added to test monolayer integrity. The basolateral side buffer is buffer, pH 7.4, without dye. […] The amount of test powder is selected to assure that if the powder was completely dissolved, the amount is sufficient to achieve ˜12 to 13 times the saturation concentration of the compound of interest previously measured in HBSS (15 μg/mL), in other words, a supersaturated solution. […] Where the compound of interest is not a substrate for p-glycoprotein (pGP), B→A efflux is not measured.
Buffer test samples are added to apical wells at 1 h after preparation and buffer alone is added to the basolateral side. […] The plates are assumed to be intact if there is no increase in fluorescence from leaking Lucifer yellow dye from the apical side. Individual cell monolayers are assumed intact if there is no increase in fluorescence in aliquots taken from the basolateral wells. […]

[3] = itraconazole; cited from earlier work
[4] = itraconazole, cited from earlier work
[5] = Equilibrium / saturation solubility in test media; assay type: physicochemical; settings: ITZ, experimentally determined
[6] = Dissolution in Biorelevant Media with pH Transition (itraconazole, FaSSGF to FaSSIF); assay type: physicochemical
Protocol: (§1) Dissolution testing, based on pH change from acidic-to-neutral media, is performed according to USP 29 Apparatus 2 Guidelines (United States Pharmacopeial Convention. Chapter <711> Dissolution, Stage 6 Harmonization, Official Dec. 1, 2011. USP website: http://www.usp.org/sites/default/files/usp_pdf/EN/USPNF/2011-02-25711DISSOLUTION.pdf).
Where specified below, the USP method was modified to use smaller 100 mL glass vessels with matching sized paddles operated at a […] speed of 100 rpm in biorelevant media using a VanKel 7000 Dissolution Tester (VanKel Technology Group, Gary, N.C.).
Biorelevant media is prepared using FaSSIF, FeSSIF & FaSSGF Powder (biorelevant.com) a commercial source of sodium taurocholate and lecithin, hereafter abbreviated “SIF Powder.” Fasted state simulated gastric fluid (FaSSGF) and Fasted state simulated intestinal fluid (FaSSIF) are prepared using the formula provided by the vendor at http://biorelevant.com/fassif-fessif-fassgf-dissolution-media/fasted-fed-state-simulated-intestinal-gastric-fluid/how-to-make/, after specifying the desired volume quantity of medium to be prepared. For example, for 500 mL of FaSSGF, the test medium contains sodium chloride, 1 g, and SIF Powder, 30 mg. Solids are dissolved in approximately 480 mL deionized water. The FaSSGF solution is adjusted to a final pH of 1.6 using concentrated hydrochloric acid, and brought to a final volume of 500 mL by adding deionized water.
For two-stage dissolution testing, which consists of a gastric stage followed by an intestinal phase, the compound of interest is first added to a volume of FaSSGF that is equivalent to ¾ of the final test volume. For example, if the test vessel is 100 mL, the volume of FaSSGF is 75 mL. After allowing dissolution to proceed for 2 hours or another specified time interval, 25 mL of a Transition Medium is added to create a final volume of 100 mL in this example, with a final pH of 6.5. The final medium is equivalent in composition to FaSSIF, as per the formula provided at the above link at biorelevant.com.
The Transition Medium is prepared first by making Transition Buffer, 500 mL, which contains sodium chloride, 9.37 g, sodium hydroxide, 2.5 g, sodium phosphate monobasic dihydrate, 8.94 g. […] Larger quantities are prepared as required, maintaining the relative amounts each of Transition Buffer and SIF Powder.
The dissolution test is performed by weighing the test formulation containing the test compound, adjusting weights to achieve an equivalent amount of test compound across the various test formulations. […] Starting time for the dissolution test is recorded with the addition of the first drop. […]

[7] = itraconazole, assumed value; cited from earlier work
[8] = Dissolution in Buffer Media with pH Transition (itraconazole); assay type: physicochemical
Protocol: as §1
Where specified below, the USP method was modified to use smaller 100 mL glass vessels with matching sized paddles operated at a speed of 100 rpm in buffer media using a VanKel 7000 Dissolution Tester (VanKel Technology Group, Gary, N.C.).
Examples A2, A3, A5 and A6 and Controls A1-A6 were tested according to the Dissolution in Buffer Media with pH Transition Test method. […] The solution was left stirring for 120 minutes, after which 3 mL aliquots were drawn from each vessel. Immediately after the aliquots were removed from the vessels, 25 mL of 0.2 M tribasic sodium phosphate buffer was added to each vessel to produce in a dissolution media having a pH 6.8±0.05. Subsequently, 3 mL aliquots were drawn from each vessel after 135 min, 150 min, 180 min, 210 min, 240 min, and 300 min. The aliquots were then analyzed to determine the concentration of itraconazole present in the media. The results were recorded in μg/mL.
Since only one sample was collected before the pH transition, the AUC, Tmax and Cmax were calculated based on the results following pH transition.

[9] = oral, taken immediately after a full meal or with an acidic beverage; cited from earlier work
[10] = after pH transition to FaSSIF pH 6.5±0.05

XRD and DSC determinations of physical state (amorphous or crystalline) [1]: mainly amorphous material.
Compound: C[C@@H](O[C@H]1OCCN(Cc2n[nH]c(=O)[nH]2)[C@H]1c1ccc(F)cc1)c1cc(C(F)(F)F)cc(C(F)(F)F)c1 [Aprepitant]

XRD and DSC determinations of physical state (amorphous or crystalline) [1]: with mainly amorphous material.
Compound: COc1ccc2c(c1)c(CC(=O)O)c(C)n2C(=O)c1ccc(Cl)cc1 [Indomethacin]

XRD and DSC determinations of physical state (amorphous or crystalline) [1]: with largely amorphous material.
Compound: CN1CC2c3ccccc3Oc3ccc(Cl)cc3C2C1 (stereo not drawn) [Asenapine Maleate]

More lines, now with the values behind:

Compound: O=C(O)Cc1ccccc1Nc1c(Cl)cccc1Cl [Diclofenac]
XRD and DSC determinations of physical state (amorphous or crystalline) [1]: XRD and DSC consistent with crystalline

Compound: COC1=CC(=O)C[C@@H](C)[C@]12Oc1c(Cl)c(OC)cc(OC)c1C2=O [Control 3, griseofulvin]
calculated levels of crystallinity based on DSC [2]: 100% | initial concentration and flux compared with unprocessed GF powder (Caco-2 monolayers): performed similarly to unprocessed GF powder

Compound: CCC(C)n1ncn(-c2ccc(N3CCN(c4ccc(OCC5COC(Cn6cncn6)(c6ccc(Cl)cc6Cl)O5)cc4)CC3)cc2)c1=O (stereo not drawn) [Control A1, Itraconazole]
log P [3]: 6.2 | pKa [3]: 3.7 | reported aqueous solubility ([4]; acidic media): 4 µg/mL | reported aqueous solubility ([4]; neutral pH): 0.001 µg/mL | solubility in FaSSIF medium [5]: 0.08 µg/mL (≈ 0.113 µM) | Neutral Phase AUC (SD) (μg · hr/mL) [6, 10]: 0.75 (0.221) μg · hr/mL | Neutral Phase Cmax [6, 10]: 291 ng/mL | Neutral Phase Tmax [6, 10]: 2.25 h | Acid Phase C120 ([6]; itraconazole concentration at 120 minutes in 75 mL FaSSGF, 6 mg itraconazole equivalent): 0.112 µg/mL | assumed solubility in 0.1 N HCl [7]: 4 µg/mL | Neutral Phase Tmax ([8]; buffer, after pH transition to 6.8±0.05): 3.50 h | Neutral Phase AUC (SD) (μg · hr/mL) ([8]; buffer, after pH transition to 6.8±0.05, up to 300 min): 0.218 (0.078) μg · hr/mL | Neutral Phase Cmax ([8]; buffer, after pH transition to 6.8±0.05 with 0.2 M tribasic sodium phosphate): 61 ng/mL | Acid Phase C120 ([8]; itraconazole concentration at 120 minutes in 75 mL 0.1 N HCl pH 1, 6 mg itraconazole equivalent): 1.50 µg/mL | maximum absorption [9]: 55%
